Where two headings read alike, the source gives them in different places.
Key:
α4β1 integrin = α4β1 integrin (Homo sapiens (Human), UniProt P05556+P13612); assay: Integrin Adhesion Assay: Protocol 5 (VCAM-coated plate, RPMI-8866 cells with stable LOF mutation of the ITGB7 gene); format: cell-based
Method in brief: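 RPMI-8866 B cells with CRISPR/Cas9 ITGB7 knockout (clonal, verified by flow cytometry) adhered to VCAM-coated wells for 1 h at 37° C in HEPES/NaCl buffer with 1 mM MnCl2, 0.1 mM CaCl2, 1% BSA, 1% DMSO. Bound cells quantified by CellTiter-Glo luminescence after washing; % inhibition versus DMSO and control, 4-parameter fit.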

α4β7 integrin = α4β7 integrin (Homo sapiens (Human), UniProt P13612+P26010); assay: Integrin Adhesion Assay: Protocol 4 (MAdCAM-coated plate, RPMI-8866 cells with stable LOF mutation of the ITGB1 gene); format: cell-based
α4β7 integrin, sequence (P13612 34-1032): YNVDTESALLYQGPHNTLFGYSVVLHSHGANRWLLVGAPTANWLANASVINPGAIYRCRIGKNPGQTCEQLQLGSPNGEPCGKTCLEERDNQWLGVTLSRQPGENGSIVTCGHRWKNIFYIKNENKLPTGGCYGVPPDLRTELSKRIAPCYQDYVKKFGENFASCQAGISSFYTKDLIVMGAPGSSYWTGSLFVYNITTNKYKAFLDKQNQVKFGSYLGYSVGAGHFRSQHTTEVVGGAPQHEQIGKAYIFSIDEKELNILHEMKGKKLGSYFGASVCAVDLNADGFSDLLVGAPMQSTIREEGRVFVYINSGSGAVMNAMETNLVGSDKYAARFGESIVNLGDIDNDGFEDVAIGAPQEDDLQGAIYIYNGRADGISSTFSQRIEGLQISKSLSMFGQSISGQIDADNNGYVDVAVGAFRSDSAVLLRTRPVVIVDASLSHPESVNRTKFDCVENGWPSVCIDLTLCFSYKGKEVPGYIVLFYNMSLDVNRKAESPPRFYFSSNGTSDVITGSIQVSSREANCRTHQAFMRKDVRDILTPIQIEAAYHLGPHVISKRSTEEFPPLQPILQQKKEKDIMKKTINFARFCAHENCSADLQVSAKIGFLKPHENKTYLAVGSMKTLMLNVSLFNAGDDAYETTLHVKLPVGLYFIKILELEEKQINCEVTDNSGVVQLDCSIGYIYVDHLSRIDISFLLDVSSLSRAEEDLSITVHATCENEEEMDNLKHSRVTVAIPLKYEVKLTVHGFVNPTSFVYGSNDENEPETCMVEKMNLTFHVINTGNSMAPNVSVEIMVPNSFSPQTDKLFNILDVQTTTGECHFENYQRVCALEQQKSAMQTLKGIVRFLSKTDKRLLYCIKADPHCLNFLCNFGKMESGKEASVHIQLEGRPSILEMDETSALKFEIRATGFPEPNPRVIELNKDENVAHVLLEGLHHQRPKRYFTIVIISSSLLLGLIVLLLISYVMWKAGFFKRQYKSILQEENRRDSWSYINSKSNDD
α4β7 integrin, sequence (P26010 20-798): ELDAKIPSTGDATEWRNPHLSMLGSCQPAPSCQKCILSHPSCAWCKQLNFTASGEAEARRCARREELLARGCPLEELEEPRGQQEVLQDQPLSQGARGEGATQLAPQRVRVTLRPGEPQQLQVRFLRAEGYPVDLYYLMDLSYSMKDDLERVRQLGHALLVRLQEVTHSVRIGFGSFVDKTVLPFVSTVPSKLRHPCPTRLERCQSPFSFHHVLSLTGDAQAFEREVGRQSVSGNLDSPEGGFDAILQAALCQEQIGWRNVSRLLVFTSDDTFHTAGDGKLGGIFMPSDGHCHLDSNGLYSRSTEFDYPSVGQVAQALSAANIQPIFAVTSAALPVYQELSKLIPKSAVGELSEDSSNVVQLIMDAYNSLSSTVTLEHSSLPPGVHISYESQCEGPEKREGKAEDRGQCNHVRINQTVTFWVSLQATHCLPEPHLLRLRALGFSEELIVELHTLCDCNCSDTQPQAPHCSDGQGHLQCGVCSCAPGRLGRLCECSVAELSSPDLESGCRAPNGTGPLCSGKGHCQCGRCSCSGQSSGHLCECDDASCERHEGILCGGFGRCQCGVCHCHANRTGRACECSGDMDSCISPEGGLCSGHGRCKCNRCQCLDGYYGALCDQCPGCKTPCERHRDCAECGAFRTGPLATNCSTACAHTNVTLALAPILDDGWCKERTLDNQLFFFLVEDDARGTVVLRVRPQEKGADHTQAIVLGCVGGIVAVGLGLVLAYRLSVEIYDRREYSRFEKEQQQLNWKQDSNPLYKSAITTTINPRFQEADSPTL
Method in brief: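 RPMI-8866 cells with CRISPR/Cas9 knockout of ITGB1 (2×10^6/mL) were added to MAdCAM-coated wells with compound (1% DMSO) in HEPES/NaCl buffer with 1 mM MnCl2, 0.1 mM CaCl2 and 1% BSA, then incubated 1 h at 37 °C. After four washes, adherent cells were quantified by CellTiter-Glo luminescence. Percent inhibition versus DMSO and control compound was fitted to 4-parameter curves.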

[1] = RPMI-8866 cells with stable LOF mutation of the ITGB7 gene, read-out: Mean IC50 α4β1 KO^b
[2] = RPMI-8866 cells with stable LOF mutation of the ITGB1 gene, read-out: Mean IC50 α4β7 KO^a
[3] = Protocol 5, RPMI-8866 cells with LOF mutation of ITGB7, VCAM, read-out: Mean IC50 α4β1 KO
[4] = Protocol 4, RPMI-8866 cells with LOF mutation of ITGB1, MAdCAM, read-out: Mean IC50 α4β7 KO

α4β1 integrin, sequence (P13612 34-1032): as the sequence (P13612 34-1032) above
α4β1 integrin, sequence (P05556 21-798): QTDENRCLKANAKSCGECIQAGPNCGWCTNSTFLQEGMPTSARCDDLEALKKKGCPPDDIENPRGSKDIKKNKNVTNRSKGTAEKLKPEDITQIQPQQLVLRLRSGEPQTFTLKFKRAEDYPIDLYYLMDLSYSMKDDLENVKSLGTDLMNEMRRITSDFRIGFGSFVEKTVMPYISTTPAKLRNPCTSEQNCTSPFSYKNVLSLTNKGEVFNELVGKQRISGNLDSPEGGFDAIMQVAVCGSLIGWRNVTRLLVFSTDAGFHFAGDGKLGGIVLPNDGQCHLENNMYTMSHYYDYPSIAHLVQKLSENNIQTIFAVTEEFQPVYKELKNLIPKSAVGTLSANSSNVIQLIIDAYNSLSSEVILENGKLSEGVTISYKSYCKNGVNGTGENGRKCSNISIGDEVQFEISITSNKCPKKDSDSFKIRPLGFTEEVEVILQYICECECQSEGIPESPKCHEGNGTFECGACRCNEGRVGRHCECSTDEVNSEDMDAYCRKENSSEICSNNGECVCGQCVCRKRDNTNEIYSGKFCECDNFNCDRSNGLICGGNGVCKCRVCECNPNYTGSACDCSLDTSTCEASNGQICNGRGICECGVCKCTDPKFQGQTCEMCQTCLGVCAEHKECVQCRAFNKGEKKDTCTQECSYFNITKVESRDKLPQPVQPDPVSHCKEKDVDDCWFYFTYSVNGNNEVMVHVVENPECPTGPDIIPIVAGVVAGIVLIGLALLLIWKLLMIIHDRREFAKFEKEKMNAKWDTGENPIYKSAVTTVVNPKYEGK

| SMILES | IC50 (α4β1 integrin; [1]) | IC50 (α4β7 integrin; [2]) | IC50 (α4β1 integrin; [3]) | IC50 (α4β7 integrin; [4]) |
| --- | --- | --- | --- | --- |
| COc1ccc(CN2CCC(F)(F)CC2)c(OC)c1-c1cccc2c(C[C@H](NC(=O)c3c(C)cncc3F)C(=O)O)cccc12 [Compound 604] | > 1000 nM | < 10 nM |  |  |
| O=C(O)[C@H](Cc1cccc2c(-c3ncc(CCN4CCC(F)(F)CC4)c4ccccc34)cccc12)NC(=O)C1(C(F)(F)F)CCN(CC(F)(F)F)CC1 [Compound 980] |  |  | > 1000 nM | 10 to 100 nM |
| COc1cccc(CN2CCCCC2)c1-c1cccc2c(C[C@H](NC(=O)c3c(F)cccc3C(F)(F)F)C(=O)O)cccc12 [Compound 542] | 100 to 1000 nM | < 10 nM |  |  |
| COc1cc2c(c(C(F)(F)F)c1-c1cccc3c(C[C@H](NC(=O)C4(C(F)(F)F)CCN(CC(F)(F)F)CC4)C(=O)O)cccc13)CCN(CC(F)(F)F)C2 [Compound 673] | > 1000 nM | 10 to 100 nM |  |  |
| O=C(O)[C@H](Cc1cccc2c(-c3ncc(CN4CCCC5(CC5)C4)c4ccccc34)cccc12)NC(=O)C1(C(F)(F)F)CCN(CC(F)(F)F)CC1 [Compound 904] |  |  | 100 to 1000 nM | < 10 nM |
| Cn1c(=O)c(-c2cccc3c(C[C@H](NC(=O)C4(C)CC5(CN(CC(F)(F)F)C5)C4)C(=O)O)cccc23)c(C(F)(F)F)c2ccccc21 [Compound 521] | > 1000 nM | 100 to 1000 nM |  |  |
| COc1cc(CN2CCCCC2)c2cccnc2c1-c1cccc2c(C[C@H](NC(=O)C3(C(F)(F)F)CCN(CC(F)(F)F)CC3)C(=O)O)cccc12 [Compound 728] |  |  | 100 to 1000 nM | < 10 nM |
| O=C(O)[C@H](Cc1cccc2c(-c3ncc(CN4CCCCC4)cc3C3CC3)cccc12)NC(=O)C1(C(F)(F)F)CCN(CC(F)F)CC1 [Compound 898] |  |  | > 1000 nM | < 10 nM |
| O=C(O)[C@H](Cc1cccc2c(-c3ccc(CN4CCCCC4)cn3)cccc12)NC(=O)C1(C(F)(F)F)CCN(CC(F)(F)F)CC1 [Compound 903] |  |  | > 1000 nM | 10 to 100 nM |
| CCN(CC)Cc1ccc(OC)c(-c2cccc3c(C[C@H](NC(=O)c4c(C)cccc4F)C(=O)O)cccc23)c1OC [Compound 622] | 100 to 1000 nM | < 10 nM |  |  |
| COc1cccc(CCN2CCC(C)C(F)(F)CC2)c1-c1cccc2c(C[C@H](NC(=O)C3(C(F)(F)F)CCN(CC(F)F)CC3)C(=O)O)cccc12 (stereo partly drawn) [Compound 971] |  |  | 100 to 1000 nM | < 10 nM |
| COc1cccc(CN2CCC(C(F)(F)F)CC2)c1-c1cccc2c(C[C@H](NC(=O)c3c(C)cccc3F)C(=O)O)cccc12 [Compound 1026] |  |  | > 1000 nM | 10 to 100 nM |
| CC[C@H]1CCCCN1Cc1cnc(-c2cccc3c(C[C@H](NC(=O)C4(C(F)(F)F)CCN(CC(F)(F)F)CC4)C(=O)O)cccc23)c2ccccc12 [Compound 929] |  |  | 100 to 1000 nM | < 10 nM |
| COc1ccc(CN2CC3C(C2)C3(C)C)c(OC)c1-c1cccc2c(C[C@H](NC(=O)C3(C(F)(F)F)CCN(CC(F)(F)F)CC3)C(=O)O)cccc12 (stereo partly drawn) [Compound 817] |  |  | 100 to 1000 nM | < 10 nM |
| COc1ccnc(OC)c1-c1cccc2c(C[C@H](NC(=O)c3c(C)cccc3F)C(=O)O)cccc12 [Compound 527] | > 1000 nM | 10 to 100 nM |  |  |
| COC1CN(Cc2cnc(-c3cccc4c(C[C@H](NC(=O)C5(C(F)(F)F)CCN(CC(F)(F)F)CC5)C(=O)O)cccc34)c3ccccc23)C1 [Compound 866] |  |  | > 1000 nM | < 10 nM |
| CN(C)CCc1cc(-c2cccc3c(C[C@H](NC(=O)C4(C(F)(F)F)CCN(CC(F)(F)F)CC4)C(=O)O)cccc23)c2cnccc2c1 [Compound 469] | 100 to 1000 nM | 10 to 100 nM |  |  |
| Cn1c(=O)c(-c2cccc3c(C[C@H](NC(=O)C4(C(F)(F)F)CCN(CCF)CC4)C(=O)O)cccc23)c(C(F)(F)F)c2ccccc21 [Compound 530] | 100 to 1000 nM | < 10 nM |  |  |
| COc1cc(CN2CCC(C)(C)CC2)cnc1-c1cccc2c(C[C@H](NC(=O)C3(C(F)(F)F)CCN(CC(F)(F)F)CC3)C(=O)O)cccc12 [Compound 890] |  |  | > 1000 nM | < 10 nM |
| COc1ccc(CN(C)CCF)c(OC)c1-c1cccc2c(C[C@H](NC(=O)c3c(C)cccc3F)C(=O)O)cccc12 [Compound 636] | 100 to 1000 nM | < 10 nM |  |  |
| COc1ccc(CN2C(C)CCC2C)c(OC)c1-c1cccc2c(C[C@H](NC(=O)c3c(C)cccc3F)C(=O)O)cccc12 (stereo partly drawn) [Compound 635] | > 1000 nM | 10 to 100 nM |  |  |
| COc1ccc(CN2CCN(Cc3ccc(C(F)(F)F)cc3)CC2)c(OC)c1-c1cccc2c(C[C@H](NC(=O)C3(C(F)(F)F)CCN(CC(F)(F)F)CC3)C(=O)O)cccc12 [Compound 806] |  |  | > 1000 nM | 10 to 100 nM |
| O=C(O)[C@H](Cc1cccc2c(-c3nccc4c(CN5CCC(F)CC5)cccc34)cccc12)NC(=O)C1(C(F)(F)F)CCN(CC(F)(F)F)CC1 [Compound 560] | > 1000 nM | < 10 nM |  |  |

| SMILES | IC50 (α4β1 integrin; [1]) | IC50 (α4β7 integrin; [2]) | IC50 (α4β1 integrin; [3]) | IC50 (α4β7 integrin; [4]) |
| --- | --- | --- | --- | --- |
| O=C(O)[C@H](Cc1cccc2c(-c3ncc(CN4CCCC4)c4ccccc34)cccc12)NC(=O)C1(C(F)(F)F)CCN(CC(F)(F)F)CC1 [Compound 918] |  |  | > 1000 nM | < 10 nM |
| CCOCc1cc(OC)c(-c2cccc3c(C[C@H](NC(=O)c4c(C)cccc4F)C(=O)O)cccc23)cc1CN1CCCCC1 [Compound 1008] |  |  | 100 to 1000 nM | < 10 nM |
| O=C(O)[C@H](Cc1cccc2c(-c3nccc4ccc(CN5CCCCC5)cc34)cccc12)NC(=O)C1(C(F)(F)F)CCN(CC(F)(F)F)CC1 [Compound 786] |  |  | > 1000 nM | 10 to 100 nM |
| O=C(O)[C@H](Cc1cccc2c(-c3c(C(F)(F)F)ccc4cccnc34)cccc12)NC(=O)C1(C(F)(F)F)CCN(CC(F)(F)F)CC1 [Compound 524] | > 1000 nM | 10 to 100 nM |  |  |
| O=C(O)[C@H](Cc1cccc2c(-c3ncc(CN4CCCCC4)c4ccccc34)cccc12)NC(=O)C1(C(F)(F)F)CCN(CCC(F)(F)F)CC1 [Compound 682] | > 1000 nM | < 10 nM |  |  |
| COc1cccc(CCN2CCC(F)(F)CC2)c1-c1cccc2c(C[C@H](NC(=O)C3(C(F)(F)F)CCN(CC(F)(F)F)CC3)C(=O)O)cccc12 [Compound 974] |  |  | > 1000 nM | 10 to 100 nM |
| COc1ccc(CN2CCC(F)(F)CC2)c(OC)c1-c1cccc2c(C[C@H](NC(=O)C3(C(F)(F)F)CCN(CC(F)(F)F)CC3)C(=O)O)cccc12 [Compound 780] |  |  | > 1000 nM | 10 to 100 nM |
| O=C(O)[C@H](Cc1cccc2c(-c3nccc4c(CN5CCC(F)(F)C5)cccc34)cccc12)NC(=O)C1(C(F)(F)F)CCN(C2COC2)CC1 [Compound 595] | 100 to 1000 nM | < 10 nM |  |  |
| COc1ccc(CN2CC3CCCCC3C2)c(OC)c1-c1cccc2c(C[C@H](NC(=O)C3(C(F)(F)F)CCN(CC(F)(F)F)CC3)C(=O)O)cccc12 (stereo partly drawn) [Compound 811] |  |  | > 1000 nM | < 10 nM |
| O=C(O)[C@H](Cc1cccc2c(-c3ncc(CN4CCCCC4)cc3Cl)cccc12)NC(=O)C1(C(F)(F)F)CCN(CC(F)(F)F)CC1 [Compound 761] |  |  | > 1000 nM | 10 to 100 nM |
| COc1c(CN2CCCCC2)ccc(Cl)c1-c1cccc2c(C[C@H](NC(=O)c3c(C)cccc3F)C(=O)O)cccc12 [Compound 1013] |  |  | 100 to 1000 nM | < 10 nM |
| Cc1cc(CN2CCC(C)(C)CC2)cnc1-c1cccc2c(C[C@H](NC(=O)C3(C(F)(F)F)CCN(C4COC4)CC3)C(=O)O)cccc12 [Compound 945] |  |  | > 1000 nM | < 10 nM |
| COc1cc(CN2CCCC2)cc(OC)c1-c1cccc2c(C[C@H](NC(=O)C3(C(F)(F)F)CCN(CC(F)(F)F)CC3)C(=O)O)cccc12 [Compound 796] |  |  | 100 to 1000 nM | < 10 nM |
| COc1cnc(CN2CCC(C)C(F)(F)CC2)cc1-c1cccc2c(C[C@H](NC(=O)C3(C(F)(F)F)CCN(CC(F)(F)F)CC3)C(=O)O)cccc12 (stereo partly drawn) [Compound 843] |  |  | > 1000 nM | < 10 nM |
| COc1ccc(CN2CCCC(F)C2)c(C(F)(F)F)c1-c1cccc2c(C[C@H](NC(=O)C3(C(F)(F)F)CCN(CC(F)(F)F)CC3)C(=O)O)cccc12 (stereo partly drawn) [Compound 820] |  |  | > 1000 nM | 10 to 100 nM |
| CCOCc1cc(OC)c(-c2cccc3c(C[C@H](NC(=O)C4(C(F)(F)F)CCN(CC(F)(F)F)CC4)C(=O)O)cccc23)cc1CN1CCCCC1 [Compound 768] |  |  | 100 to 1000 nM | < 10 nM |
| COc1cnc(CN(C)C)cc1-c1cccc2c(C[C@H](NC(=O)c3c(C)cccc3F)C(=O)O)cccc12 [Compound 601] | > 1000 nM | < 10 nM |  |  |
| CC[C@@H]1CCCN1Cc1cnc(-c2cccc3c(C[C@H](NC(=O)C4(C(F)(F)F)CCN(CC(F)F)CC4)C(=O)O)cccc23)c2ccccc12 [Compound 936] |  |  | 100 to 1000 nM | < 10 nM |
| COc1cc(CN2CCCCC2)cc(OC)c1-c1cccc2c(C[C@H](NC(=O)c3c(C)cccc3F)C(=O)O)cccc12 [Compound 1019] |  |  | 100 to 1000 nM | < 10 nM |
| COc1c(-c2cccc3c(C[C@H](NC(=O)C4(C(F)(F)F)CCN(CC(F)(F)F)CC4)C(=O)O)cccc23)c(=O)n(C)c2ccccc12 [Compound 739] |  |  | > 1000 nM | 10 to 100 nM |
| COc1cccc(CCN2CCC(F)(F)CC2)c1-c1cccc2c(C[C@H](NC(=O)c3c(C)cccc3F)C(=O)O)cccc12 [Compound 1034] |  |  | > 1000 nM | 10 to 100 nM |
| O=C(O)[C@H](Cc1cccc2c(-c3cccc4c3OCCO4)cccc12)NC(=O)C1(C(F)(F)F)CCN(CC(F)(F)F)CC1 [Compound 766] |  |  | > 1000 nM | 10 to 100 nM |

Source: patent US20250313535A1, “ALPHA 4 BETA 7 INTEGRIN MODULATORS AND USES THEREOF” (DICE MOLECULES SV, INC., priority 2022, published 2025)
